Key:
[1] = target: KRAS^G12D binding to c-Raf (Homo sapiens (Human), UniProt P01116, G12D); experiment: SOS1-mediated binding of KRAS^G12D to effector protein c-Raf (TR-FRET); type: biochemical
plasma protein [2] = experiment: Plasma protein binding (PPB), equilibrium dialysis, R plasma; type: in vitro ADME, rat; settings: 2 μM, 4 hr dialysis
Protocol: (§1) Assay procedure: 995 μL of blank plasma of various genera were weighed, and 5 μL of assay compound working solution (400 μM) or warfarin working solution (400 μM) was added so that the final concentrations of the assay compound and warfarin in plasma sample were each 2 μM. The samples were mixed thoroughly. The final concentration of DMSO (the organic phase) was 0.5%. 50 μL of the plasma samples of the assay compound and warfarin were pipetted to a sample receiving plate (in triplicate), and the corresponding volume of corresponding blank plasma or buffer was added immediately, so that the final volume in each sample well was 100 μL, wherein the volume ratio of plasma:dialysis buffer was 1:1. 500 μL of stop solution was then added to these samples. These samples were used as T0 samples for determination of recovery and stability. […] All samples were subjected to protein precipitation, and then analyzed by LC/MS/MS. Bound rate and recovery rate of protein were calculated using the following formulae: % Unbound=100*F/T % Bound=100−% Unbound, % Recovery=100*(F+T)/T0 (wherein F is the peak area ratio of the compound in the dialysate after 4 h of dialysis; T is the peak area ratio of the compound in the plasma after 4 h of dialysis; T0 is the peak area ratio of the compound in the plasma sample at time zero).

[3] = Pharmacokinetic evaluation of compounds in rats; type: in vivo; settings: rat, plasma, SD rats
Protocol: Purpose of assay: To assay the pharmacokinetic data of the compounds in SD rats in vivo.
(§2) Compounds were mixed with vehicle 5% DMSO/95% (10% HP-β-CD in water), and the mixture was vortexed and sonicated to give a clear solution of 0.3 mg/mL. The candidate compound solutions were administered intravenously. Whole blood was collected for a certain period of time to prepare plasma. The drug concentration was analyzed by LC-MS/MS method, and pharmacokinetic parameters were calculated.
as §2, with “a” for “a clear”, “7” for “0.3”, “orally.” for “intravenously.”

[4] = Pharmacokinetic evaluation of compounds in dogs; type: in vivo; settings: dog, plasma, Beagle dogs
Protocol: Purpose of assay: To assay the pharmacokinetic data of the compounds in Beagle dogs in vivo.
as §2, with “Compound 014 was” for “Compounds were”, “20% DMSO/60% PEG400/20%” for “5% DMSO/95%”, “4” for “0.3”
as §2, with “Compound 014 was” for “Compounds were”, “mixed (15 mg/mL)” for “mixed”, “20% DMSO/60% PEG400/20%” for “5% DMSO/95%”, “solutions” for “a clear solution”, “6 mg/mL to 15” for “0.3”, “orally.” for “intravenously.”

plasma protein [5] = experiment: Plasma protein binding (PPB), equilibrium dialysis, C plasma; type: in vitro ADME, monkey; settings: 2 μM, 4 hr dialysis
Protocol: as §1

plasma protein [6] = experiment: Plasma protein binding (PPB), equilibrium dialysis, H plasma; type: in vitro ADME, human; settings: 2 μM, 4 hr dialysis
Protocol: as §1

[7] = Pharmacokinetic evaluation of compounds in mice; type: in vivo, CD-1 mice; settings: CD-1 male mice
Protocol: Purpose of assay: To assay the pharmacokinetic data of the compounds in CD-1 mice in vivo.
(§3) Compounds were mixed with vehicle 5% DMSO/95% (10% HP-β-CD aqueous solution), and the mixture was vortexed and sonicated to give 0.2 mg/mL-0.3 mg/mL clear solutions. CD-1 male mice aged 7 to 10 weeks were selected, and the candidate compound solution was administered intravenously. Whole blood was collected for a certain period of time to prepare the plasma. The drug concentration was analyzed by LC-MS/MS method and pharmacokinetic parameters were calculated by Phoenix WinNonlin software (Pharsight, USA).
as §3, with “in water),” for “aqueous solution),”, “1.6 mg/mL to 4.0” for “0.2 mg/mL-0.3”, “orally administered.” for “administered intravenously.”, “prepare” for “prepare the”, “method,” for “method”

Chain of KRAS^G12D binding to c-Raf (P01116-2 other isoform, or with tags, fused parts or gaps G12D): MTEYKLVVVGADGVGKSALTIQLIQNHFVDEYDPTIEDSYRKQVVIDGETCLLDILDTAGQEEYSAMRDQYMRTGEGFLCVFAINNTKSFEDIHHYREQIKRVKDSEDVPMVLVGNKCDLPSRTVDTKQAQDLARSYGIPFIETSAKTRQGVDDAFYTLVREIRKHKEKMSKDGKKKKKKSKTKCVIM

In the case of `C#Cc1c(F)ccc2cc(N)cc(-c3ccc4c(N5CC6CCC(C5)N6)nc(OC[C@@]56CCCN5C[C@H](F)C6)nc4c3F)c12` [Compound 014], the IC50 [1] is reported as 12 nM, the “Unbound PPB R” value (plasma protein [2]) is reported as 2.0% and the AUC(0-inf) ([3]; IV, 1.56 mg/kg) is reported as 0.15 µM·h. For the same compound, the C0 ([3]; IV, 1.56 mg/kg) was 971 nM, the Vd ([3]; IV, 1.56 mg/kg) was 5.89 L/kg and the clearance ([3]; IV, 1.56 mg/kg) was 271 mL/min/kg. The half-life ([3]; IV, 1.56 mg/kg) was 33.6 min, the AUC(0-inf) ([3]; PO, 31.7 mg/kg) was 0.427 µM·h and the Cmax ([3]; PO, 31.7 mg/kg) was 182 nM. The bioavailability ([3]; PO, 31.7 mg/kg) was 12.5%, the half-life ([3]; PO, 31.7 mg/kg) was 408 min and the AUC(0-inf) ([4]; IV, 1.56 mg/kg) was 0.15 µM·h. The C0 ([4]; IV, 1.56 mg/kg) was 971 nM, the Vd ([4]; IV, 1.56 mg/kg) was 5.89 L/kg and the clearance ([4]; IV, 1.56 mg/kg) was 271 mL/min/kg. It also gave a half-life ([4]; IV, 1.56 mg/kg) of 33.6 min, an AUC(0-inf) ([4]; PO, 32.1 mg/kg) of 0.969 µM·h and a Cmax ([4]; PO, 32.1 mg/kg) of 439 nM. For the same compound, the bioavailability ([4]; PO, 32.1 mg/kg) was 16.9%, the half-life ([4]; PO, 32.1 mg/kg) was 648 min and the “Unbound PPB C” value (plasma protein [5]) was 2.8%. The “Unbound PPB H” value (plasma protein [6]) was 18.5%, the AUCu ([7]; PO, 16.0 mg/kg, AUCu = AUC0-inf *Unbound PPB (Mouse)) was 67.1 nM·h and the AUC(0-inf) ([7]; mouse, plasma, IV, 1.28 mg/kg) was 0.565 µM·h. The C0 ([7]; mouse, plasma, IV, 1.28 mg/kg) was 953 nM, the Vd ([7]; mouse, plasma, IV, 1.28 mg/kg) was 25.6 L/kg and the clearance ([7]; mouse, plasma, IV, 1.28 mg/kg) was 77 mL/min/kg. For the same compound, the half-life ([7]; mouse, plasma, IV, 1.28 mg/kg) was 342 min, the AUC(0-inf) ([7]; mouse, plasma, PO, 16.0 mg/kg) was 1.49 µM·h and the Cmax ([7]; mouse, plasma, PO, 16.0 mg/kg) was 524 nM. For the same compound, the bioavailability ([7]; mouse, plasma, PO, 16.0 mg/kg) was 20.5% and the half-life ([7]; mouse, plasma, PO, 16.0 mg/kg) was 360 min.
